Test results taken from paper PMC6755814, “Crystal structure of the first eukaryotic bilin reductase GtPEBB reveals a flipped binding mode of dihydrobiliverdin” (The Journal of Biological Chemistry, 2019).

Experiments:
mGtPEBB [1] = target: T1, mGtPEBB (Guillardia theta, UniProt L1IWQ9); test: UV/Vis spectral shift; HPLC of products; type: binding; details: pH 7.5, 10 μM protein, 10 μM bilin; unnatural ligand, not reduced
T1 construct: gene GUITHDRAFT_96430; GST fusion in E. coli, cut by TEV protease, leaving N-terminal Gly-Gly; single-domain protein; codon-optimized gene
T1 sequence (L1IWQ9 84-356): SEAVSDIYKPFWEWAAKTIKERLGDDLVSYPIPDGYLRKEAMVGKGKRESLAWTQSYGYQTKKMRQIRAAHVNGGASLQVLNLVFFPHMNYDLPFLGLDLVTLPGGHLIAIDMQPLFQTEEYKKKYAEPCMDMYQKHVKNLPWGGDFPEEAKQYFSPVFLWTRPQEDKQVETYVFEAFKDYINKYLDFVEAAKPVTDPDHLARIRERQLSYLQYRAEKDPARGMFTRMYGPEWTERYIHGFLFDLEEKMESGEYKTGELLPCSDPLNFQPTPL

mGtPEBB [2] = target: T2, mGtPEBB (Guillardia theta, UniProt L1IWQ9, R298M); test: UV/Vis spectral shift; anaerobic reductase assay with HPLC; type: biochemical; details: pH 7.5, ferredoxin from Synechococcus sp. PCC7002, NADPH regenerating system; product DHBV, low efficiency
T2 construct: gene GUITHDRAFT_96430; GST fusion in E. coli, cut by TEV protease, leaving N-terminal Gly-Gly; single-domain protein; codon-optimized gene

mGtPEBB [3] = target: T3, mGtPEBB (Guillardia theta, UniProt L1IWQ9, R298K); test: as above; type: biochemical; details: pH 7.5, ferredoxin from Synechococcus sp. PCC7002, NADPH regenerating system
T3 construct: gene GUITHDRAFT_96430; GST fusion in E. coli, cut by TEV protease, leaving N-terminal Gly-Gly; single-domain protein; codon-optimized gene

mGtPEBB [4] = target: T4, mGtPEBB (Guillardia theta, UniProt L1IWQ9, R298L); test: as above; type: binding; details: pH 7.5, ferredoxin from Synechococcus sp. PCC7002, NADPH regenerating system
T4 construct: gene GUITHDRAFT_96430; GST fusion in E. coli, cut by TEV protease, leaving N-terminal Gly-Gly; single-domain protein; codon-optimized gene

mGtPEBB [5] = target: T5, mGtPEBB (Guillardia theta, UniProt L1IWQ9, D182N); test: as above; type: binding; details: pH 7.5, ferredoxin from Synechococcus sp. PCC7002, NADPH regenerating system
T5 construct: gene GUITHDRAFT_96430; GST fusion in E. coli, cut by TEV protease, leaving N-terminal Gly-Gly; single-domain protein; codon-optimized gene

mGtPEBB [6] = target: T6, mGtPEBB (Guillardia theta, UniProt L1IWQ9, R298S); test: as above; type: binding; details: pH 7.5, ferredoxin from Synechococcus sp. PCC7002, NADPH regenerating system
T6 construct: gene GUITHDRAFT_96430; GST fusion in E. coli, cut by TEV protease, leaving N-terminal Gly-Gly; single-domain protein; codon-optimized gene

mGtPEBB [7] = target: T2, mGtPEBB; test: as above; type: binding; details: pH 7.5, ferredoxin from Synechococcus sp. PCC7002, NADPH regenerating system
mGtPEBB [8] = target: T7, mGtPEBB (Guillardia theta, UniProt L1IWQ9, D302N); test: as above; type: binding; details: pH 7.5, ferredoxin from Synechococcus sp. PCC7002, NADPH regenerating system
T7 construct: gene GUITHDRAFT_96430; GST fusion in E. coli, cut by TEV protease, leaving N-terminal Gly-Gly; single-domain protein; codon-optimized gene

mGtPEBB [9] = target: T1, mGtPEBB; test: X-ray crystal structure of complex, […] Å; UV/Vis spectral shift; anaerobic reductase assay with HPLC; type: binding; details: co-crystal at pH 8.5; assay pH 7.5 with ferredoxin from Synechococcus sp. PCC7002, NADPH regenerating system; active site, flipped orientation
mGtPEBB [10] = target: T8, mGtPEBB (Guillardia theta, UniProt L1IWQ9, R298A); test: UV/Vis spectral shift; anaerobic reductase assay with HPLC; type: biochemical; details: pH 7.5, ferredoxin from Synechococcus sp. PCC7002, NADPH regenerating system; trace conversion only
T8 construct: gene GUITHDRAFT_96430; GST fusion in E. coli, cut by TEV protease, leaving N-terminal Gly-Gly; single-domain protein; codon-optimized gene
T8 sequence (L1IWQ9 entry or part of it R298A): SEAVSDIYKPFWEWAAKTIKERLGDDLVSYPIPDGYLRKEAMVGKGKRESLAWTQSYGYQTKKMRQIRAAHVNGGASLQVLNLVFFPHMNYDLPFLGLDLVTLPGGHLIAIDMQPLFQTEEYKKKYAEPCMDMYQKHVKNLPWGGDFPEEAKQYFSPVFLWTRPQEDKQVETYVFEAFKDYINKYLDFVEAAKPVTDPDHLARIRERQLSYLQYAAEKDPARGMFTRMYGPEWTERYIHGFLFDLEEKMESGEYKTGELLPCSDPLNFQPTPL

T2 sequence (L1IWQ9 entry or part of it R298M): as the sequence (L1IWQ9 entry or part of it R298A) above, with A215M counted along it
T7 sequence (L1IWQ9 entry or part of it D302N): as the sequence (L1IWQ9 entry or part of it R298A) above, with A215R, D219N counted along it
T6 sequence (L1IWQ9 entry or part of it R298S): as the sequence (L1IWQ9 entry or part of it R298A) above, with A215S counted along it
T4 sequence (L1IWQ9 entry or part of it R298L): as the sequence (L1IWQ9 entry or part of it R298A) above, with A215L counted along it
T3 sequence (L1IWQ9 entry or part of it R298K): as the sequence (L1IWQ9 entry or part of it R298A) above, with A215K counted along it
T5 sequence (L1IWQ9 entry or part of it D182N): as the sequence (L1IWQ9 entry or part of it R298A) above, with D99N, A215R counted along it

UV/Vis spectral shift; anaerobic reductase assay with HPLC (mGtPEBB [2]) | Structure (SMILES) | UV/Vis spectral shift; HPLC of products (mGtPEBB [1]) | UV/Vis spectral shift; anaerobic reductase assay with HPLC (mGtPEBB [3]) | UV/Vis spectral shift; anaerobic reductase assay with HPLC (mGtPEBB [4]) | UV/Vis spectral shift; anaerobic reductase assay with HPLC (mGtPEBB [5]) | UV/Vis spectral shift; anaerobic reductase assay with HPLC (mGtPEBB [6]) | UV/Vis spectral shift; anaerobic reductase assay with HPLC (mGtPEBB [7]) | UV/Vis spectral shift; anaerobic reductase assay with HPLC (mGtPEBB [8]) | X-ray crystal structure of complex, 1.65 Å; UV/Vis spectral shift; anaerobic red (mGtPEBB [9]) | UV/Vis spectral shift; anaerobic reductase assay with HPLC (mGtPEBB [10])
R215M was able to convert BV to DHBV | C=CC1=C(C)C(=Cc2[nH]c(C=C3N=C(C=C4NC(=O)C(C)=C4C=C)C(C)=C3CCC(=O)O)c(CCC(=O)O)c2C)NC1=O [BV] | indicated binding of this unnatural substrate |  |  |  |  |  |  |  | 
 | C=CC1=C(C)C(=O)NC1=CC1=NC(=Cc2[nH]c(CC3NC(=O)C(C=C)=C3C)c(C)c2CCC(=O)O)C(CCC(=O)O)=C1C (stereo not shown) [DHBV] |  | Replacing Arg-215 with lysine maintained side chain charge and size to some extent | the binding spectrum of R215L was very similar to the WT spectrum | caused a blue shift of the maximum of the DHBV-binding spectrum | both R215S and R215M showed binding spectra similar to WT | both R215S and R215M showed binding spectra similar to WT | caused a blue shift of the maximum of the DHBV-binding spectrum | Both chains showed clear density for DHBV already after molecular replacement | only trace amounts of PEB were detected for R215A
